# Assay results as given in PubChem BioAssay AID256 (DTP/NCI, 2004).
# Several values for one entry are separate records, joined by “and”; a condition that tells them apart may be missing. Equal entries are not always repeated. Toxic doses and inconclusive results are not listed.
# Test system: CD2F1 mice, L1210 leukemia ip, survival T/C
# Experiment: NCI In Vivo Anticancer Drug Screen. Data for tumor model L1210 Leukemia (intraperitoneal) in CD2F1 (CDF1) mice
# Conditions: higher = longer survival
# Summary of the method: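 Compound-dosed mice with transplantable tumor versus matched vehicle controls; endpoint ratio T/C reported.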
# [1] = endpoint: mean survival time, dose: 100.0 mg/kg/injection, schedule: Q01DX009 (ip), vehicle: saline with Tween-80
# [2] = endpoint: mean survival time, dose: 100.0 mg/kg/injection, schedule: Q04DX003 (ip), vehicle: saline with Tween-80
# [3] = endpoint: mean survival time, dose: 200.0 mg/kg/injection, schedule: Q01DX009 (ip), vehicle: saline with Tween-80
# [4] = endpoint: mean survival time, dose: 200.0 mg/kg/injection, schedule: Q04DX003 (ip), vehicle: saline with Tween-80
# [5] = endpoint: mean survival time, dose: 400.0 mg/kg/injection, schedule: Q01DX009 (ip), vehicle: saline with Tween-80
# [6] = endpoint: mean survival time, dose: 400.0 mg/kg/injection, schedule: Q04DX003 (ip), vehicle: saline with Tween-80
# [7] = endpoint: mean survival time, dose: 25.0 mg/kg/injection, schedule: Q04DX002 (ip), vehicle: saline with Tween-80
# [8] = endpoint: mean survival time, dose: 50.0 mg/kg/injection, schedule: Q04DX002 (ip), vehicle: saline with Tween-80
# [9] = endpoint: mean survival time, dose: 100.0 mg/kg/injection, schedule: Q01DX001 (ip), vehicle: saline with Tween-80
# [10] = endpoint: mean survival time, dose: 100.0 mg/kg/injection, schedule: Q04DX002 (ip), vehicle: saline with Tween-80
compound,measurement,setting,value
CCN(CCN(C)C(C)(C)C(C)(C)C)C(=O)C(O)(c1ccccc1)c1ccccc1,T/C,"endpoint: mean survival time, dose: 50.0 mg/kg/injection, schedule: Q01DX009 (ip), vehicle: saline with Tween-80",103 % of control
same,T/C,[1],110 % of control
CCOC(=O)Nc1cccc([N+](=O)[O-])c1,T/C,"endpoint: mean survival time, dose: 100.0 mg/kg/injection, schedule: Q01DX009 (ip), vehicle: other",98 % of control
same,T/C,"endpoint: mean survival time, dose: 200.0 mg/kg/injection, schedule: Q01DX009 (ip), vehicle: other",113 % of control
c1ccc(-c2nnc(-c3ccccc3)nn2)cc1,T/C,[1],98 % of control
same,T/C,[2],98 % of control
same,T/C,[3],98 % of control
same,T/C,[4],101 % of control
same,T/C,[5],95 % of control
same,T/C,[6],96 % of control
Nc1ccc(CCCCc2nc(N)nc(N)c2-c2ccc(Cl)c(Cl)c2)cc1,T/C,[2],98 % of control
same,T/C,[4],100 % of control
same,T/C,[6],113 % of control
Cn1cc(C2NC(=O)c3ccccc3N2)c2ccccc21 (centres undefined),T/C,"endpoint: median survival time, dose: 100.0 mg/kg/injection, schedule: Q01DX009 (ip), vehicle: Klucel (hydroxypropylcellulose) (HPC)",119 % of control
c1ccc2c(c1)Sc1ccccc1N2CCCNC1=NCCO1,T/C,[7],97 % of control
same,T/C,[8],94 % of control
same,T/C,[9],89 % of control
same,T/C,[10],94 % of control
O=[As](O)(CC(O)COc1ccccc1)c1cccc(Cl)c1 (centres undefined),T/C,"endpoint: mean survival time, dose: 6.25 mg/kg/injection, schedule: Q04DX003 (ip), vehicle: saline with Tween-80",103 % of control
same,T/C,"endpoint: mean survival time, dose: 12.5 mg/kg/injection, schedule: Q04DX003 (ip), vehicle: saline with Tween-80",107 % of control
same,T/C,"endpoint: mean survival time, dose: 25.0 mg/kg/injection, schedule: Q04DX003 (ip), vehicle: saline with Tween-80",100 % of control
N#CC(C#N)CN(C1=NCCO1)c1cccc2c1CCCC2,T/C,[7],94 % of control
same,T/C,[8],94 % of control
same,T/C,[10],98 % of control
same,T/C,[2],89 % of control
same,T/C,[6],89 % of control
N#Cc1ccc(NN=O)nc1,T/C,"endpoint: median survival time, dose: 3.12 mg/kg/injection, schedule: Q01DX005 (ip), vehicle: water",109 % of control
same,T/C,"endpoint: median survival time, dose: 6.25 mg/kg/injection, schedule: Q01DX005 (ip), vehicle: water",120 % of control
same,T/C,"endpoint: median survival time, dose: 12.5 mg/kg/injection, schedule: Q01DX005 (ip), vehicle: water",124 % of control
same,T/C,"endpoint: median survival time, dose: 15.0 mg/kg/injection, schedule: Q01DX005 (ip), vehicle: water",152 % of control and 158 % of control
same,T/C,"endpoint: median survival time, dose: 25.0 mg/kg/injection, schedule: Q01DX005 (ip), vehicle: water",164 % of control and 175 % of control
same,T/C,"endpoint: median survival time, dose: 41.66 mg/kg/injection, schedule: Q01DX005 (ip), vehicle: water",191 % of control
same,T/C,"endpoint: median survival time, dose: 50.0 mg/kg/injection, schedule: Q01DX005 (ip), vehicle: water",95 % of control
same,T/C,"endpoint: median survival time, dose: 69.4 mg/kg/injection, schedule: Q01DX005 (ip), vehicle: water",118 % of control
C(OC[C@H]1CC[C@@H](COCC2CO2)O1)C1CO1 (some centres undefined),T/C,"endpoint: mean survival time, dose: 65.0 mg/kg/injection, schedule: Q01DX009 (ip), vehicle: saline",107 % of control
same,T/C,"endpoint: mean survival time, dose: 108.0 mg/kg/injection, schedule: Q01DX009 (ip), vehicle: saline",112 % of control
same,T/C,"endpoint: mean survival time, dose: 178.0 mg/kg/injection, schedule: Q01DX001 (ip), vehicle: saline",100 % of control
same,T/C,"endpoint: mean survival time, dose: 180.0 mg/kg/injection, schedule: Q01DX009 (ip), vehicle: saline",124 % of control
same,T/C,"endpoint: mean survival time, dose: 267.0 mg/kg/injection, schedule: Q01DX001 (ip), vehicle: saline",103 % of control
same,T/C,"endpoint: mean survival time, dose: 400.0 mg/kg/injection, schedule: Q01DX001 (ip), vehicle: saline",109 % of control
same,T/C,"endpoint: mean survival time, dose: 600.0 mg/kg/injection, schedule: Q01DX001 (ip), vehicle: saline",121 % of control
Cc1c[nH]c(=O)c[n+]1[O-],T/C,[1],100 % of control
same,T/C,[3],100 % of control
same,T/C,[5],97 % of control
COc1cc2nc(/C=C/c3nc4cc(OC)c(OC)cc4[nH]3)[nH]c2cc1OC,T/C,[9],106 % of control
CCNc1ncnc2nncnc12,T/C,"endpoint: mean survival time, dose: 100.0 mg/kg/injection, schedule: Q01DX001 (ip), vehicle: carboxymethylcellulose (CMC)",98 % of control
CC[N+](C)(CC)CCNC(=O)C(c1ccccc1)c1ccccc1,T/C,"endpoint: mean survival time, dose: 25.0 mg/kg/injection, schedule: Q01DX009 (ip), vehicle: saline",104 % of control
same,T/C,"endpoint: mean survival time, dose: 50.0 mg/kg/injection, schedule: Q01DX009 (ip), vehicle: saline",102 % of control
same,T/C,"endpoint: mean survival time, dose: 100.0 mg/kg/injection, schedule: Q01DX009 (ip), vehicle: saline",95 % of control
